In US20090142323A1, “METHODS FOR TREATING A DISORDER BY REGULATING GPRC6A” (priority 2007, published 2009):

How the values were obtained:
bone marrow and testes = assay: phospho-ERK activity and Egr-1 expression in bone marrow and testes in vivo; set-up: species or system mouse; details: 200 mg/kg intraperitoneally
Description: (§1) To establish a linkage between non-genomic effects of androgens and tissue responses in vivo, we examined the impact of loss of GPRC6A on the capacity of testosterone to stimulate phospho-ERK activity and early growth-responsive 1 (Egr-1) expression in bone marrow and testes in vivo (FIGS. 8D and 8E). To accomplish this, we administered testosterone at a dose of 200 MG/KG or vehicle intraperitonealy to wild-type and GPRC6A^−/− male mice.
as §1, with “(FIG.” for “in vivo (FIGS. 8D and”, “mg/kg” for “MG/KG”, “intraperitoneally” for “intraperitonealy”, “mice. Bone marrow was harvested at 20 and 60 minutes for assessment of ERK phosphorylation and Egr-1 mRNA expression.” for “mice.”

[1] = biological target: T1, calcium sensing receptor (CASR) (Rattus norvegicus, UniProt P48442); assay: phospho-ERK in HEK-293 cells transfected with calcium sensing receptor; format: cell-based; details: HEK293 transfected with CASR
T1 construct: expressed in transfected cells; host or cells: HEK-293
T1 sequence (P48442 20-1079): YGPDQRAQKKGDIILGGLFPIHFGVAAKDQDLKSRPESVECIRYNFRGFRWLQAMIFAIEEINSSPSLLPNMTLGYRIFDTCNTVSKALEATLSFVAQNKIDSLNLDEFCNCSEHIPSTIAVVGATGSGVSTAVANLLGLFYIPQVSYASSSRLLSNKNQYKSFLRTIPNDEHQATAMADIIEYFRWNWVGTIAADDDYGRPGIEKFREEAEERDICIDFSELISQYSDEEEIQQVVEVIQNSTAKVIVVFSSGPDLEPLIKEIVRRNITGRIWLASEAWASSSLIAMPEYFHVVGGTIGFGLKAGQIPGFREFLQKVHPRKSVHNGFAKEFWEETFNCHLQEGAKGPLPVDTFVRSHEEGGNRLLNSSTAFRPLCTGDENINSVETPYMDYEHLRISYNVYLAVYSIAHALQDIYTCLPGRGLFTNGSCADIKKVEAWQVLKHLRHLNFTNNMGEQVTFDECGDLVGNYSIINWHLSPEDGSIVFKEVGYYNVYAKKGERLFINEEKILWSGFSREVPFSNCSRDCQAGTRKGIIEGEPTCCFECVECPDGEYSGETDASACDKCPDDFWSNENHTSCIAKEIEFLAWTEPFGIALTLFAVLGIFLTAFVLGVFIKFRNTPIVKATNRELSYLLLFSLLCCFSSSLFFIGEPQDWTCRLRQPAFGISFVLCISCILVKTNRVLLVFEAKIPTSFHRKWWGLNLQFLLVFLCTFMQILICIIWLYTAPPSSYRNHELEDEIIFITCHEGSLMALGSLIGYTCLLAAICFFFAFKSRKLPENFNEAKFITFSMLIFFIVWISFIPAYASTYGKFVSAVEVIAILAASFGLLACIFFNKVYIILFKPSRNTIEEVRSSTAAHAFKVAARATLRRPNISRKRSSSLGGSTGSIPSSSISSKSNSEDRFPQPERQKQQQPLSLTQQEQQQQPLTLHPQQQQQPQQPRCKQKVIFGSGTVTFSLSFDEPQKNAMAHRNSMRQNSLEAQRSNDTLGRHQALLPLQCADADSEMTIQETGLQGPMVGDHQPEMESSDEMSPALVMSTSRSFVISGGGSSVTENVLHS
Description: Equal amounts of lysates were subjected to 10% SDS-PAGE, and phospho-ERK1/2 levels were determined by immunoblotting using antiphospho-ERK1/2 mitogen-activated protein kinase antibody (Cell Signaling Technology). […] An anti-peptide antibody was raised in a rabbit against a peptide ([…] (SEQ ID NO: 27)) corresponding to a sequence in the extracellular domain of mouse GPRC6A (in exon 1 of mouse GPRC6A gene) produced by Abgent (San Diego, Calif.). For phospho-ERK, the phospho-ERK1/2 levels were determined by immunoblotting using anti-phospho-ERK1/2 mitogen-activated protein kinase antibody (Cell Signaling Technology). Urinary β2-microglobulin was detected by rabbit polyclonal anti-β2-microglobulin antibody (Abcam Inc.). For aromatase expression analysis, the rabbit polyclonal anti-aromatase antibody (Abcam Inc.) and goat anti-rabbit IgG HRP secondary antibody (Santa Cruz Biotechnology Inc.) were used. Mouse anti-Actin antibody (Santa Cruz Biotechnology Inc.) was used for control protein loading.

With `C[C@]12CC[C@H]3[C@@H](CCC4=CC(=O)CC[C@@]43C)[C@@H]1CC[C@@H]2O` [testosterone] the “Egr-1 expression in bone marrow and testes” value (bone marrow and testes; GPRC6A-/- male mice) was “markedly attenuated”, the “phospho-ERK activity in bone marrow and testes” value (bone marrow and testes; GPRC6A-/- male mice) was “markedly attenuated” and the “Egr-1 expression in bone marrow and testes” value (bone marrow and testes; wild-type male mice) was “stimulated”. For the same compound, the “phospho-ERK activity in bone marrow and testes” value (bone marrow and testes; wild-type male mice) was “stimulated” and the phospho-ERK response [1] was “did not responded”.
